For one compound, EC50, Activity and Vdss results are on record in ChEMBL document CHEMBL1933028, “Discovery of cyclic amine-substituted benzoic acids as PPARα agonists” (Bioorg Med Chem Lett, 2012).

Some results are limits rather than exact numbers.

Data set [1] can be described thus: Agonist activity at hamster PPARdelta. Format: functional, Cricetinae.
Data set [2] has as its system Canis familiaris. The data set is described as follows: Antidyslipidemic activity in high-fat diet fed dog assessed as decrease in total cholesterol at 0.003 mg/kg, po administered QD for 1 week (reference value: 205 +/- 6 mg/dL). The format is functional, Canis lupus familiaris.
For data set [3], the system named is Canis familiaris. The data set is described as follows: Antidyslipidemic activity in high-fat diet fed dog assessed as decrease in non-HDL cholesterol at 0.01 mg/kg, po administered QD for 1 week (reference value: 75 +/- 5 mg/dL). The format is functional, Canis lupus familiaris.
Data set [4] deals with Canis familiaris. The data set is described as follows: Antidyslipidemic activity in high-fat diet fed dog assessed as decrease in non-HDL cholesterol at 0.03 mg/kg, po administered QD for 1 week (reference value: 75 +/- 5 mg/dL). The format is functional, Canis lupus familiaris.
In data set [5] the test system is Canis familiaris. Put plainly: Toxicity in high-fat diet fed dog assessed as change in body weight at 0.003 mg/kg, po administered QD for 1 week (reference value: 14.8 +/- 0.7 kg). Format: organism-based, Canis lupus familiaris. The arrangement: dose 0.003 mg/kg, route oral. The conditions noted are these: in vivo, 168 h.
Data set [6] concerns the target T1, Peroxisome proliferator-activated receptor delta (Canis lupus familiaris, UniProt Q0ZAQ8).
T1 sequence (Q0ZAQ8 whole entry): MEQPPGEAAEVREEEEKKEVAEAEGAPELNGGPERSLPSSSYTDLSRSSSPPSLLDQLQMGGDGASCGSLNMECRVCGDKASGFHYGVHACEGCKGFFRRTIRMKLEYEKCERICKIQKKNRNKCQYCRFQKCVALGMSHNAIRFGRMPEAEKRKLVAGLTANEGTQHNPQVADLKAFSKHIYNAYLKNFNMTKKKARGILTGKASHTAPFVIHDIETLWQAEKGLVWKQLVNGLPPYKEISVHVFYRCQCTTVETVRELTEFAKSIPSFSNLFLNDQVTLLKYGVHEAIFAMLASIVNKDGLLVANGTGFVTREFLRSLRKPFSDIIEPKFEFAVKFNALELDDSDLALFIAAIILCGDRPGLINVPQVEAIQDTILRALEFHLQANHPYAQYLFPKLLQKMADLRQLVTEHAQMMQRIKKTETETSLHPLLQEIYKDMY
The data set is described as follows: Agonist activity at dog PPARdelta. Format: functional.

Data set [7] addresses T2, Peroxisome proliferator-activated receptor gamma (Homo sapiens, UniProt P37231).
T2 sequence (P37231 whole entry): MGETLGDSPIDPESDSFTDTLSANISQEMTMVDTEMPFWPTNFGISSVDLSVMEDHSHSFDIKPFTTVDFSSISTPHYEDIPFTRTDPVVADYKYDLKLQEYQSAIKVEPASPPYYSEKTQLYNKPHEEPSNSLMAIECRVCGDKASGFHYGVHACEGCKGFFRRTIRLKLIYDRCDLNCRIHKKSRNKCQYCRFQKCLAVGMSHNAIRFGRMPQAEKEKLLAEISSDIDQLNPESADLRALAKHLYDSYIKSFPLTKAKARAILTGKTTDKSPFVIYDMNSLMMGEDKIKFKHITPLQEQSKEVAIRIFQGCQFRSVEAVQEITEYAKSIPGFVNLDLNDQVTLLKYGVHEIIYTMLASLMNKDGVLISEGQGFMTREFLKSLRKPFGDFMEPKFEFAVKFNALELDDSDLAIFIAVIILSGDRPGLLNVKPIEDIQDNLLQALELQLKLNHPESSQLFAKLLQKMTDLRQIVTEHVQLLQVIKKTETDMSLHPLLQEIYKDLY
The data set is described as follows: Transactivation of human PPARgamma expressed in CHO-K1 cells. The format is cell-based.

The target of data set [8] is T3, Peroxisome proliferator-activated receptor alpha (Canis lupus familiaris, UniProt Q95N78).
T3 sequence (Q95N78 whole entry): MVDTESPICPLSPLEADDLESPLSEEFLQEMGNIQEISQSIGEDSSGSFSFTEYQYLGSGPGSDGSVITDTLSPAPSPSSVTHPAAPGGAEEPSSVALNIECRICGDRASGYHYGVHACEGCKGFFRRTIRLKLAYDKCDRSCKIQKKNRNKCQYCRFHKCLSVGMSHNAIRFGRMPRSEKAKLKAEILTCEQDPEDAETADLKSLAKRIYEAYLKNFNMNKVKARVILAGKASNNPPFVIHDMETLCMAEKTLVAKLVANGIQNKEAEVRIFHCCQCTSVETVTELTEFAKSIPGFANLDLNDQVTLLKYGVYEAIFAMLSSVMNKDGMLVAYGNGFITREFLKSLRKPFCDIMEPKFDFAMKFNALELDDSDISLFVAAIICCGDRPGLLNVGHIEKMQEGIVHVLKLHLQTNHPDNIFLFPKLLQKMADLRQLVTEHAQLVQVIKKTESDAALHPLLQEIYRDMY
The data set is described as follows: Agonist activity at dog PPARalpha. Format: functional.

Data set [9] concerns Canis familiaris. Put plainly: Antidyslipidemic activity in high-fat diet fed dog assessed as decrease in serum triglyceride level at 0.03 mg/kg, po administered QD for 1 week (reference value: 98 +/- 4 mg/dL). The format is functional, Canis lupus familiaris.
Data set [10] is described as follows: Agonist activity at hamster PPARgamma. The format is functional, Cricetinae.
Data set [11] relates to Canis familiaris. Put plainly: Antidyslipidemic activity in high-fat diet fed dog assessed as decrease in non-HDL cholesterol at 0.003 mg/kg, po administered QD for 1 week (reference value: 75 +/- 5 mg/dL). Format: functional, Canis lupus familiaris.
The target in data set [12] is T4, Peroxisome proliferator-activated receptor alpha (Mus musculus, UniProt P23204).
T4 sequence (P23204 whole entry): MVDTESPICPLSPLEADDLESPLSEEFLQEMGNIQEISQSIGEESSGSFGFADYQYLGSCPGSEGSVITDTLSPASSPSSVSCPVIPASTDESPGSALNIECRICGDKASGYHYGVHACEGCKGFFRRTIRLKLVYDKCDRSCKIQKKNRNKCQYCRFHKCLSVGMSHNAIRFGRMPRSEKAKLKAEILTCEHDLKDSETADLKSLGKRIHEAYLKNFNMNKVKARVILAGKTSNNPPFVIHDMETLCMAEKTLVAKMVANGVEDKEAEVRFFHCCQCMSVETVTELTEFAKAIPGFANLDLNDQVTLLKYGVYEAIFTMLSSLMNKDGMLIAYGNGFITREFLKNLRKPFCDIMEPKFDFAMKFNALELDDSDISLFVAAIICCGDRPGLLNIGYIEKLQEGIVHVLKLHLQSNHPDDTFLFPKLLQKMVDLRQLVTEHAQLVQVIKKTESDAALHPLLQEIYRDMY
The data set is described as follows: Agonist activity at mouse PPARalpha. Format: functional.

Data set [13] concerns Rattus norvegicus. Put plainly: Volume of distribution at steady state in rat at 1 mg/kg, po. The format is ADME, organism-based. The arrangement: dose 1 mg/kg, route oral. To be noted: in vivo.
Data set [14] concerns Canis familiaris. The data set is described as follows: Toxicity in high-fat diet fed dog assessed as effect on food intake at 0.003 mg/kg, po administered QD for 1 week (reference value: 3.67+/-0.09 kg). The format is organism-based, Canis lupus familiaris. The arrangement: dose 0.003 mg/kg, route oral. To be noted: in vivo, 168 h.

On to `Cc1nc(-c2ccc(Cl)cc2)sc1C(=O)N[C@H]1CCCN(c2cccc(C(=O)O)c2)C1`, for which the EC50 in data set [1] is more than 7.1 µM; in data set [6], 2.7 µM; in [7], 9.6 µM; in data set [8], 0.19 µM; in data set [10], more than 15 µM; in data set [12], 4.7 µM. Besides, the Activity was 190 mg/dL in data set [2]; 50 mg/dL in [3]; 42 mg/dL in data set [4]; 15.3 kg in data set [5]; 44 mg/dL in data set [9]; 65 mg/dL in data set [11]. Moreover, the Activity in data set [14] was 3.85 kg. Moreover, the Vdss in [13] is 0.832 L/kg.

Usually EC50 stands for the concentration needed to bring the measured effect to its halfway point. Low values mean a more potent agent, high ones a less potent agent.
